Measurements as given in patent US10653670B2, “Use of indole compounds for fat reduction and skin and soft tissue tightening” (Alevere Medical Corporation, priority 2013, dated 2020).
“Also recorded” adds a separate entry of the source.

Columns and labels:
[1] = tested on: dermal fibroblasts; format: cell-based; conditions: for Dermis, averaged ethidium numbers: kill rate (ethidium), same plate as adipocytes; for Dermis, relative kill rate rated against the adipocyte kill rate: percentage in brackets; for toxicity to dermis / dermal fibroblasts: Example 2, FIGS. 6-8
Description: (§1) The time and concentration dependent effects of drug substance on both cell viability and toxicity were evaluated using a two-color fluorescence assay that measures plasma membrane integrity and intracellular enzyme activity. Live cells are determined by the strong fluorescence of calcein AM upon enzymatic conversion. […] The ratio of ethidium to calcein fluorescence is an excellent measure of the relative amount of live and dead cells.
(§2) Initial screening was performed using a variety of cell viability and cytotoxicity assays, including Presto Blue® (Invitrogen, Grand Island, N.Y.), Alamar Blue® (Invitrogen, Grand Island, N.Y.), Cyto-Tox One® (Promega, Madison, Wis.), and Cell Titer Glo® (Promega, Madison, Wis.). […] An MTT terazolium assay was performed, as well as LDH and ATP based assays. […] The LIVE/DEAD® for mammalian cells assay was used. LIVE/DEAD® for mammalian cells assay is a calcein (live read)/ethidium bromide (dead) multiplex assay.
(§3) A sample of DMSO/PBS was a negative control. A sample of Aqualyx® was a positive control. In the table, 24M is phosphatidylcholine 25 mg/ml plus deoxycholate 12 mg/and 25N is C 50/DC24; these were positive controls. The numbers in the table refer to averaged ethidium numbers. The percentages represent the relative kill rate for each cell type when rated against the adipocyte kill rate for that compound. All tissue types were tested on the same plate against adipocytes in order to standardize results.
(§4) Over seventy compounds of the embodiments were tested for adipocytolysis, then for tissue preference. A consistent assay with multiplex information was a calcein/ethidium bromide assay that assesses cell viability and cell death simultaneously. Cell viability was checked using the Countess device. All plates were inoculated with 100 microliters of the appropriate cell types. A 6 well repeat was used to verify results. Cell types used included cultured human adult derived adipocytes, dermal fibroblasts, skeletal muscle cells, and endothelial cells (Cell Applications, Inc., San Diego, Calif.). Human peripheral nerve cells (Innoprot, Spain) were also used.
(§5) Compounds were formulated using a DMSO/PBS excipient. A 10 mg/ml concentration was used. One hundred microliters of test compound was inserted into 6 wells of 5 cell types, placed in adjacent rows. The plates were incubated for 4 hours. Indicator was added to each well, and plates were read at 45 minutes using a fluorescence spectrophotometer (Molecular Devices, Sunnyvale, Calif.).

[2] = tested on: nerve cells; format: cell-based; conditions: for Nerve, averaged ethidium numbers: kill rate (ethidium), same plate as adipocytes; for Nerve, relative kill rate rated against the adipocyte kill rate: percentage in brackets; for toxicity to nerve cells: Example 2, FIGS. 6-8
Description: as §1, §2, §3, §4, §5

[3] = tested on: adipocytes over nerve cells, dermal cells, muscle cells, and endothelial cells; experiment: LIVE/DEAD assay, tissue preference (adipocytes versus other cell types); format: cell-based, human; conditions: for tissue specificity / tissue preference: Example 2, FIGS. 5-8 and table, 2 and 5 hours in FIGS. 6-8; for tissue preference for adipocytes: Example 2
[4] = tested on: skeletal muscle cells; experiment: LIVE/DEAD calcein/ethidium bromide assay, muscle cell kill rate; format: cell-based, human; conditions: for Muscle, averaged ethidium numbers: kill rate (ethidium), same plate as adipocytes; for Muscle, relative kill rate rated against the adipocyte kill rate: percentage in brackets
Description: as §1, §2, §3, §4, §5

[5] = tested on: endothelial cells; experiment: LIVE/DEAD calcein/ethidium bromide assay, endothelial cell kill rate; format: cell-based, human; conditions: for Endothelial, averaged ethidium numbers: kill rate (ethidium), same plate as adipocytes; for Endothelial, relative kill rate rated against the adipocyte kill rate: percentage in brackets
Description: as §1, §2, §3, §4, §5

[6] = tested on: adipocytes; experiment: LIVE/DEAD calcein/ethidium bromide assay, adipocyte kill rate; format: cell-based, human; conditions: for Adipocyte, averaged ethidium numbers: kill rate (ethidium), all tissue types on the same plate; for adipocyte kill rate / aggressiveness: Example 2, FIGS. 5-8 and table
Description: as §1, §2, §3, §4, §5

[7] = tested on: adipocytes; experiment: Histology of injected immediate ex-vivo abdominoplasty tissue; format: cell-based, human; conditions: at 1 hour
Description: As the indole group has not been previously used for intralesional fat reduction, a method of obtaining histologic specimens had to be modified.
The tissue model described herein, therefore, was immediate ex-vivo abdominoplasty tissue that had been permitted for use by the surgical patient. Segments of abdominal skin and subcutaneous fat were injected with identified test compounds, plus a negative saline control and three positive controls: 1% deoxycholate, the commercial preparation of Aqualyx®, and the Network Lipolysis PC/DC formula.
Because there was no host; inflammatory changes would not be expected. This study was only performed to assess the immediacy of adipocyte changes, and to determine the method of action of each compound.

| SMILES | Dermis, averaged ethidium numbers [1] | Nerve, averaged ethidium numbers [2] | tissue specificity / tissue preference [3] | Muscle, averaged ethidium numbers [4] | Endothelial, averaged ethidium numbers [5] | Adipocyte, averaged ethidium numbers [6] | Dermis, relative kill rate rated against the adipocyte kill rate [1] | Nerve, relative kill rate rated against the adipocyte kill rate [2] | histology finding / mechanism of action [7] | Muscle, relative kill rate rated against the adipocyte kill rate [4] | Endothelial, relative kill rate rated against the adipocyte kill rate [5] | adipocyte kill rate / aggressiveness [6] | tissue preference for adipocytes [3] | toxicity to dermis / dermal fibroblasts [1] | toxicity to nerve cells [2] |
| --- | --- | --- | --- | --- | --- | --- | --- | --- | --- | --- | --- | --- | --- | --- | --- |
| O=Cc1c[nH]c2ccccc12 [Compound 1, 1H-indole-3-carbaldehyde] | 56 | 60 | no preference | 82 | 98 | 53 | – | – | – | – | – | – | – | – | – |
| O=Cc1cc2ccccc2[nH]1 [Compound 2, 1H-indole-2-carbaldehyde] | 101 | 124 | most strongly tissue preferential; also recorded: high specificity | 93 | 116 | 360 | 28% | 39% | more cytolysis than apoptosis | 26% | 32% | aggressive; also recorded: most aggressive | – | – | – |
| O=Cc1ccc2[nH]ccc2c1 [Compound 3, 1H-indole-5-carbaldehyde] | 26.5 | 26 | moderate preference | 25 | 25 | 42.5 | 62% | 61% | – | 59% | 59% | – | – | – | – |
| O=Cc1cccc2cc[nH]c12 [Compound 4, 1H-indole-7-carbaldehyde] | 79 | 66 | shows specificity for adipocyte killing | 99 | 86 | 127 | 62% | 52% | – | 78% | 63% | less aggressive | about 50% | – | – |
| O=Cc1cccc2[nH]ccc12 [Compound 5, 1H-indole-4-carbaldehyde] | 17 | 17 | – | 27 | 16 | 36 | 47% | 47% | – | 75% | 44% | – | about 50% | late dermal spike | more nerve preservation |
| O=Cc1c[nH]c2c3c(ccc12)CCC3 [Compound 7, 1,6,7,8-tetrahydrocyclopenta[g]indole-3-carbaldehyde] | 103 | 56 | not tissue preference | 119 | 69 | 196 | 53% | 30% | – | 61% | 35% | – | – | – | – |
| O=C(O)CCCc1c[nH]c2ccccc12 [Compound 10, 4-(1H-indol-3-yl) butanoic acid] | 10 | 12 | – | 13 | 16.5 | 45 | 22% | 27% | – | 29% | 37% | most aggressive | – | – | – |
| O=C(O)c1cccc2[nH]ccc12 [Compound 27, 1H-indole-4-carboxylic acid] | – | – | high specificity | – | – | – | – | – | – | – | – | – | – | – | – |
| O=C(O)c1ccc2[nH]ccc2c1 [Compound 28, 1H-indole-5-carboxylic acid] | – | – | high specificity | – | – | – | – | – | – | – | – | high kill rate | – | – | – |
| O=C(O)c1c[nH]c2ccccc12 [Compound 30, 1H-indole-3-carboxylic acid] | – | – | – | – | – | – | – | – | – | – | – | – | about 50% | – | – |
| O=C(O)c1cc2cc(Br)ccc2[nH]1 [Compound 40, 5-bromo-1H-indole-2-carboxylic acid] | 33 | 61 | most strongly tissue preferential; also recorded: tissue specificity at two time points; also recorded: high specificity | 36 | 40 | 123 | 27% | 50% | – | 29% | 33% | moderate | – | – | – |
| O=Cc1c[nH]c2cccc(OCc3ccccc3)c12 [Compound 43, 4-(benzyloxy)-1H-indole-3-carbaldehyde] | 74 | 58 | most strongly tissue preferential | 73 | 92.5 | 340 | 22% | 17% | – | 21% | 27% | aggressive; also recorded: adipolytic | – | low kill rate | low kill rate |
| O=Cc1c[nH]c2cc(OCc3ccccc3)ccc12 [Compound 44, 6-(benzyloxy)-1H-indole-3-carbaldehyde] | 134 | 103 | not as specific as the other compounds tested in this group | 172 | 129 | 218 | 61% | 47% | – | 79% | 59% | – | about 50% | – | – |
| O=C(O)[C@H]1Cc2c([nH]c3ccccc23)[C@@H](c2ccc(O)cc2O)N1 [Compound 78, (1R,3R)-1-(2,4-dihydroxyphenyl)-2,3,4,9-tetrahydro-1H-pyrido [3,4-b]indole-3-carboxylic acid] | 8.3 | – | high specificity | 8.7 | 9.8 | 29.5 | 28% | – | – | 29% | 33% | – | – | – | – |
